Assay results from patent publication US20180333418A1, “USE OF PAN FGFR INHIBITORS AND METHOD OF IDENTIFYING PATIENTS WITH CANCER ELIGIBLE FOR TREATMENT WITH A PAN FGFR INHIBITOR” (BAYER PHARMA AKTIENGESELLSCHAFT, priority 2014, published 2018).

Experiments:
[1] = system: LXFL1121 lung tumor model; test: LXFL1121 xenograft in vivo efficacy; parameters: species or system nu/nu mice; conditions: tumor weight reduction
Description: (§1) For all other tumors as listed in table 2 & 3 the experiments were carried out in an analogous way as described above.

LXFE211 lung tumor model = test: LXFE211 xenograft in vivo efficacy; parameters: species or system nu/nu mice; conditions: tumor weight reduction
Description: as §1

[2] = system: MFE280 endometrial tumor model; test: MFE280 xenograft in vivo efficacy; parameters: species or system nu/nu mice; conditions: tumor weight reduction
Description: as §1

[3] = system: LXFA1584 lung tumor model; test: LXFA1584 xenograft in vivo efficacy; parameters: species or system nu/nu mice; conditions: tumor weight reduction
Description: as §1

[4] = system: FGFR mRNA-positive tumors of cancer patients; test: Clinical trial NCT01976741, RECIST CT scan evaluation; type: in vivo; parameters: key to RECIST response after C2 / RECIST response after C5: Stable Disease (SD) according to RECIST; progressive disease (PD); conditions: 800 mg BID; for % tumor change after C2 / RECIST response after C2: C2 = 6 weeks; for % tumor change after C5 / RECIST response after C5: C5 = 15 weeks
H1581 lung tumor model = test: H1581 xenograft in vivo efficacy; parameters: species or system nu/nu mice; conditions: tumor weight reduction
Description: as §1

H1703 lung tumor model = test: H1703 xenograft in vivo efficacy; parameters: species or system nu/nu mice; conditions: tumor weight reduction
Description: as §1

H520 lung tumor model = test: H520 xenograft in vivo efficacy; parameters: species or system nu/nu mice; conditions: tumor weight reduction
Description: as §1

[5] = system: KYSE-140 esophageal tumor model; test: KYSE-140 xenograft in vivo efficacy; parameters: species or system nu/nu mice; conditions: KYSE-140 esophageal model; tumor weight reduction
Description: as §1

COCc1c(-c2cc3cc(C)cc(OC)c3s2)c2c(N)ncnn2c1CN1CCNC(=O)C1 [compound of formula (I)]
in vivo efficacy [1]: yes (All models in which the tumor weight was reduced upon treatment with compounds of formula (I) by at least 50% were considered to be efficacious in vivo.)
in vivo efficacy (LXFE211 lung tumor model): yes (All models in which the tumor weight was reduced upon treatment with compounds of formula (I) by at least 50% were considered to be efficacious in vivo.)
in vivo efficacy [2]: yes (All models in which the tumor weight was reduced upon treatment with compounds of formula (I) by at least 50% were considered to be efficacious in vivo.)
in vivo efficacy [3]: no (All models in which the tumor weight was reduced upon treatment with compounds of formula (I) by at least 50% were considered to be efficacious in vivo.)
% tumor change after C2 ([4]; Pat 100010010, sqNSCLC): 0%
RECIST response after C2 ([4]; Pat 100010010, sqNSCLC): SD
% tumor change after C5 ([4]; Pat 100010010, sqNSCLC): +8%
RECIST response after C5 ([4]; Pat 100010010, sqNSCLC): SD
% tumor change after C2 ([4]; Pat 100010018, Mesothelioma): +14%
RECIST response after C2 ([4]; Pat 100010018, Mesothelioma): SD
% tumor change after C2 ([4]; Pat 100020012, sqNSCLC): −10%
RECIST response after C2 ([4]; Pat 100020012, sqNSCLC): SD
% tumor change after C2 ([4]; Pat 560020029, sqNSCLC): +4%
RECIST response after C2 ([4]; Pat 560020029, sqNSCLC): SD
% tumor change after C5 ([4]; Pat 560020029, sqNSCLC): +5%
RECIST response after C5 ([4]; Pat 560020029, sqNSCLC): SD
% tumor change after C2 ([4]; Pat 560020064, SCLC): −2%
RECIST response after C2 ([4]; Pat 560020064, SCLC): SD
% tumor change after C2 ([4]; Pat 580010012, sqNSCLC): −10%
RECIST response after C2 ([4]; Pat 580010012, sqNSCLC): SD
% tumor change after C5 ([4]; Pat 580010012, sqNSCLC): −10%
RECIST response after C5 ([4]; Pat 580010012, sqNSCLC): SD
% tumor change after C2 ([4]; Pat 580010016, sqNSCLC): −5%
RECIST response after C2 ([4]; Pat 580010016, sqNSCLC): SD
% tumor change after C5 ([4]; Pat 580010016, sqNSCLC): −6%
RECIST response after C5 ([4]; Pat 580010016, sqNSCLC): SD
% tumor change after C2 ([4]; Pat 580010022, Bladder): −3%
RECIST response after C2 ([4]; Pat 580010022, Bladder): SD
% tumor change after C5 ([4]; Pat 580010022, Bladder): −2%
RECIST response after C5 ([4]; Pat 580010022, Bladder): SD
% tumor change after C2 ([4]; Pat 580010038, Unknown primary): +26%
RECIST response after C2 ([4]; Pat 580010038, Unknown primary): PD
in vivo efficacy (H1581 lung tumor model): yes (All models in which the tumor weight was reduced upon treatment with compounds of formula (I) by at least 50% were considered to be efficacious in vivo.)
in vivo efficacy (H1703 lung tumor model): no (All models in which the tumor weight was reduced upon treatment with compounds of formula (I) by at least 50% were considered to be efficacious in vivo.)
in vivo efficacy (H520 lung tumor model): no (All models in which the tumor weight was reduced upon treatment with compounds of formula (I) by at least 50% were considered to be efficacious in vivo.)
in vivo efficacy [5]: no (All models in which the tumor weight was reduced upon treatment with compounds of formula (I) by at least 50% were considered to be efficacious in vivo.)
